{"source": "paper PMC3388095", "about": "“Fluorophore Labeled Kinase Detects Ligands That Bind within the MAPK Insert of p38α Kinase” (PLoS ONE, 2012)", "test_in_all_cases": "Kinase selectivity profile, 33P-ATP filter-binding assay", "format_in_all_cases": "biochemical", "key": {"[1]": {"target": "p38α MAPK (Homo sapiens, UniProt Q16539)", "protocol": "(§1) Figure 5 Kinase selectivity profile of 1b. Compound 1b was profiled against a selected panel of 95 different kinases at a concentration of 10 µM employing a radioactive (^33P-ATP) filter-binding assay (National Centre for Protein Kinase Profiling, Dundee). The numbers represent the remaining kinase activity in %. […] TEXT PRINTED IN THE PICTURE: no label printed: Aurora B: 53; MNK2: 67; MINK1: 69; HER4: 71; MKK1: 75; PKBβ: 75; PHK: 76; PIM2: 76; PIM3: 77; CHK2: 78; PKD1: 79; TBK1: 79; PAK4: 80; Lck: 80; GSK3β: 80; IGF-1R: 81; p38δ MAPK: 81; PIM1: 82; SRPK1: 83; SmMLCK: 83; MAPKAP-K3: 84; EPH A2: 85; MELK: 85; CK2: 85; CK1: 86; CAMK1: 86; PLK1: 87; MST2: 87; IR-HIS: 87; BTK: 87; HIPK1: 87; p38α MAPK: 88; DYRK2: 88; JNK3: 88; PAK5: 88; IKKε: 89; p38β MAPK: 89; NUAK1: 90; PAK2: 90; MNK1: 91; ERK8: 91; GCK: 91; PRAK: 91; MLK1: 92; SGK1: 92; PAK6: 92; TTK: 92; BRSK2: 92; MARK4: 93; CHK1: 93; RIPK2: 94; CDK2-Cyclin A: 94; JNK1: 94; AMPK: 94; VEG-FR: 95; DYRK1A: 95; CAMKKβ: 95; PKCα: 96; S6K1: 96; MSK1: 96; PKCz: 96; YES1: 96; RSK1: 97; IRAK4: 97; DYRK3: 97; IKKβ: 97; ERK2: 98; MLK3: 98; RSK2: 98; LKB1: 98; MAPKAP-K2: 98; ERK1: 99; FGF-R1: 99; SYK: 99; MST4: 99; MARK3: 99; MARK2: 100; PDK1: 100; JNK2: 101; HIPK2: 101; BRSK1: 102; EF2K: 102; PRK2: 103; Aurora A: 104; IRR: 104; CSK: 104; PKA: 104; NEK6: 105; p38γ MAPK: 105; Src: 107; PKBα: 109; ROCK 2: 109; EPH-B3: 112; HIPK3: 115; NEK2α: 119 DOUBTS OF THE COPYIST ABOUT THIS PICTURE: The picture prints no compound label and no measure or unit for the numbers; only the colour scale 'Inhibition weak/strong' is printed. / PKCz: the last letter may be z or ζ / NEK2α: the last letter may be a or α / IKKε: the last letter may be ε or e"}, "[2]": {"target": "IRAK4 (Homo sapiens, UniProt Q9NWZ3)", "sequence (Q9NWZ3 whole entry)": "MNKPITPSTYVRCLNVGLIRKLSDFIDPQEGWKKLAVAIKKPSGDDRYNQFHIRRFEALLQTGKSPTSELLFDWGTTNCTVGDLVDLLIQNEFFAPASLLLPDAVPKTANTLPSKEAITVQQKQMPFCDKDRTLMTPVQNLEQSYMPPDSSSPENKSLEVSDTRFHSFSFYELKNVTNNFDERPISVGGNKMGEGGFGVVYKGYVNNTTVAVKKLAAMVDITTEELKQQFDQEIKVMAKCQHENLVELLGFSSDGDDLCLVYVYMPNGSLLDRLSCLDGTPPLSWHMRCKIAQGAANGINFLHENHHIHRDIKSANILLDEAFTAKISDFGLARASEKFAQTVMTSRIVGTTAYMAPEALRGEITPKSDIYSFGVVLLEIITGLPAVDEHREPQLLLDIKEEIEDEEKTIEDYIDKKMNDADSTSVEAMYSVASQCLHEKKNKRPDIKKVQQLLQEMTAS", "protocol": "as §1"}, "[3]": {"target": "MARK4 (Homo sapiens, UniProt Q96L34)", "protocol": "as §1"}, "[4]": {"target": "ERK8 (Homo sapiens, UniProt Q8TD08)", "sequence (Q8TD08 whole entry)": "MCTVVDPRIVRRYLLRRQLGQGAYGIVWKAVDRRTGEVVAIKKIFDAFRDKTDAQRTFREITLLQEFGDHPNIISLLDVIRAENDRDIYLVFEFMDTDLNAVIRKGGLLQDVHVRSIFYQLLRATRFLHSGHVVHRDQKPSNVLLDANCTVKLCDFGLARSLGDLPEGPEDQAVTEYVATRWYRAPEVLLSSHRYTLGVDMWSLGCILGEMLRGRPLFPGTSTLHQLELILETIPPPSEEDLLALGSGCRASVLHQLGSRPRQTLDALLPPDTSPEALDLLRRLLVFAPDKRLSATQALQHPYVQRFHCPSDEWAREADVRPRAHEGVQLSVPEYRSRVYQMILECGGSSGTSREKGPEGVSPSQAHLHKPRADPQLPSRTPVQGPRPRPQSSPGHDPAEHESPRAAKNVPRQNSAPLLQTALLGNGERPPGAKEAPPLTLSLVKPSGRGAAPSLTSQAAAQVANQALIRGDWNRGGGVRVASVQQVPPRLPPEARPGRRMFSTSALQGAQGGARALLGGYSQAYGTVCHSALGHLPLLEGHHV", "protocol": "as §1"}, "[5]": {"target": "MARK3 (Homo sapiens, UniProt P27448)", "sequence (P27448 whole entry)": "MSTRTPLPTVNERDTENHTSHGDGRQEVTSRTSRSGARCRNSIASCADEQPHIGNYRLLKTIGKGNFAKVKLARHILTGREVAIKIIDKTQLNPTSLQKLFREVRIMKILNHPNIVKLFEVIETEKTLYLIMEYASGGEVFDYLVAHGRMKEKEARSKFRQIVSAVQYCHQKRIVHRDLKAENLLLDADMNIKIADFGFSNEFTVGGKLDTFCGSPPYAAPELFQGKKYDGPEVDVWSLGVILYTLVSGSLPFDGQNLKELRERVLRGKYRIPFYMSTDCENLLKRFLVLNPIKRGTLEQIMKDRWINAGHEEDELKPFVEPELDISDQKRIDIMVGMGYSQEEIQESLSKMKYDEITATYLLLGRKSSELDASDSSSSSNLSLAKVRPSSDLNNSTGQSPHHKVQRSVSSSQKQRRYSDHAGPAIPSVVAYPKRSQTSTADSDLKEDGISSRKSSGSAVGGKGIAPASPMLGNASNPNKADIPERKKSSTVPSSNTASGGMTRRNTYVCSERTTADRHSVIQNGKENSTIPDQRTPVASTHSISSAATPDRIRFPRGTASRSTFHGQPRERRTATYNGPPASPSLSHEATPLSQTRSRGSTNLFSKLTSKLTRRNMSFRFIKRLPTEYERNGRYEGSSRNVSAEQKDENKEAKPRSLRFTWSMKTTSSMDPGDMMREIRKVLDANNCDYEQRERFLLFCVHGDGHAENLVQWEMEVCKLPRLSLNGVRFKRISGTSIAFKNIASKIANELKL", "protocol": "as §1"}, "[6]": {"target": "PKCα (Homo sapiens, UniProt P17252)", "protocol": "as §1"}, "[7]": {"target": "MARK2 (Homo sapiens, UniProt Q7KZI7)", "protocol": "as §1"}, "[8]": {"target": "JNK1 (Homo sapiens, UniProt P45983)", "protocol": "as §1"}, "[9]": {"target": "MSK1 (Homo sapiens, UniProt O75582)", "protocol": "as §1"}, "[10]": {"target": "YES1 (Homo sapiens, UniProt P07947)", "sequence (P07947 whole entry)": "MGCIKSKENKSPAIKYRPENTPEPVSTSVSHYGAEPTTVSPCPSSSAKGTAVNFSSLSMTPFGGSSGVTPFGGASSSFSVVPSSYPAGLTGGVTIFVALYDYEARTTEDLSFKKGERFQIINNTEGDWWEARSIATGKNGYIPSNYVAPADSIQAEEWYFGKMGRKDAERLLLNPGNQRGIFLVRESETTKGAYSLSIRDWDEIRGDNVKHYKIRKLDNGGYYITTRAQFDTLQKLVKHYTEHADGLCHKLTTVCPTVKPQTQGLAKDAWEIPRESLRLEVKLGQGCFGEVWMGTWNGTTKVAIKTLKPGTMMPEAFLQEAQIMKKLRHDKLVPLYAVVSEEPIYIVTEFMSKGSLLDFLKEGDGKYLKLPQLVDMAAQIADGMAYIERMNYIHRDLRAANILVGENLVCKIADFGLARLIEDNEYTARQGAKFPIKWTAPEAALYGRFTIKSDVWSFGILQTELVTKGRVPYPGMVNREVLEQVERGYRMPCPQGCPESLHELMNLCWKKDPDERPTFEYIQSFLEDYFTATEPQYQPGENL", "protocol": "as §1"}, "[11]": {"target": "RIPK2 (Homo sapiens, UniProt O43353)", "protocol": "as §1"}, "[12]": {"target": "DYRK3 (Homo sapiens, UniProt O43781)", "sequence (O43781 whole entry)": "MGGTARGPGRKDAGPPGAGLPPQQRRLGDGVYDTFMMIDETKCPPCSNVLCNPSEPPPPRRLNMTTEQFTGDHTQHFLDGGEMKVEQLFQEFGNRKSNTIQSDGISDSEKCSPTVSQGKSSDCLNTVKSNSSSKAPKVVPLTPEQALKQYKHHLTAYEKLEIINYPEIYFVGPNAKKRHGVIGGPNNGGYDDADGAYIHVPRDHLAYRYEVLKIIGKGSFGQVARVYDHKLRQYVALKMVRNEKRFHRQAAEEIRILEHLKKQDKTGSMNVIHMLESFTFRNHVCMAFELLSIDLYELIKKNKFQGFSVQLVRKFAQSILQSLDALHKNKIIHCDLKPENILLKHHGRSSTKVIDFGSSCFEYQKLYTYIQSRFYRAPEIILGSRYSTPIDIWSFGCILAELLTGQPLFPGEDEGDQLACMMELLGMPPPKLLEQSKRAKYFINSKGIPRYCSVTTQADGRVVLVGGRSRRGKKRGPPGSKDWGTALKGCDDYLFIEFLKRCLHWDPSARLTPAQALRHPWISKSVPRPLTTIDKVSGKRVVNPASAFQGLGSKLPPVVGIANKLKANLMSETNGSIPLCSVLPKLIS", "protocol": "as §1"}, "[13]": {"target": "CK2 (Homo sapiens, UniProt P68400)", "sequence (P68400 whole entry)": "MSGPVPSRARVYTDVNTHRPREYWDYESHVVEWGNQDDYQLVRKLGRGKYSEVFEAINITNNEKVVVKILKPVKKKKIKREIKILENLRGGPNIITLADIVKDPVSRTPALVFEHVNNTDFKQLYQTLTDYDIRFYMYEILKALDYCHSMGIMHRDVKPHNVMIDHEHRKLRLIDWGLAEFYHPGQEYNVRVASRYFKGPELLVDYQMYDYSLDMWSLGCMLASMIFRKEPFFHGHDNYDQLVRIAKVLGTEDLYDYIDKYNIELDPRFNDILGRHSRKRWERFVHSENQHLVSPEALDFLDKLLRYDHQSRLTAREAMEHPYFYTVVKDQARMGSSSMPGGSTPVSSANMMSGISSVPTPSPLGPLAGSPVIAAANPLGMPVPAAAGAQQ", "protocol": "as §1"}, "[14]": {"target": "PAK4 (Homo sapiens, UniProt O96013)", "protocol": "as §1"}, "[15]": {"target": "MAPKAP-K2 (Homo sapiens, UniProt P49137)", "protocol": "as §1"}, "[16]": {"target": "MNK1 (Homo sapiens, UniProt Q9BUB5)", "sequence (Q9BUB5 whole entry)": "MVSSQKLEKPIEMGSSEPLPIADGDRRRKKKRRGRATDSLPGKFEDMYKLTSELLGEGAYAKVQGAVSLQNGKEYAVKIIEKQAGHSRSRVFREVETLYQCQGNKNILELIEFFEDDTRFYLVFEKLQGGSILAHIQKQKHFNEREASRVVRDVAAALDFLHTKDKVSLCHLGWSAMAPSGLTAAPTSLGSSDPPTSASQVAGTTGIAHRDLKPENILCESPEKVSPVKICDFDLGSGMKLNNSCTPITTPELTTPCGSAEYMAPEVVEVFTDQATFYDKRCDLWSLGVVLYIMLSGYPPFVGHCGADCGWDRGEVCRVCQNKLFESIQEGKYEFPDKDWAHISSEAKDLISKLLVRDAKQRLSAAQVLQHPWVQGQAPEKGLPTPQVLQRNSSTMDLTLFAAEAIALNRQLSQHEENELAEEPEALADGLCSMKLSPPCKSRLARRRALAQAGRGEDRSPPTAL", "protocol": "as §1"}, "[17]": {"target": "DYRK1A (Homo sapiens, UniProt Q13627)", "protocol": "as §1"}, "[18]": {"target": "SmMLCK (Homo sapiens, UniProt Q15746)", "protocol": "as §1"}, "[19]": {"target": "JNK2 (Homo sapiens, UniProt P45984)", "protocol": "as §1"}, "[20]": {"target": "EF2K (Homo sapiens, UniProt O00418)", "protocol": "as §1"}, "[21]": {"target": "CK1 (Homo sapiens, UniProt P48730)", "sequence (P48730 whole entry)": "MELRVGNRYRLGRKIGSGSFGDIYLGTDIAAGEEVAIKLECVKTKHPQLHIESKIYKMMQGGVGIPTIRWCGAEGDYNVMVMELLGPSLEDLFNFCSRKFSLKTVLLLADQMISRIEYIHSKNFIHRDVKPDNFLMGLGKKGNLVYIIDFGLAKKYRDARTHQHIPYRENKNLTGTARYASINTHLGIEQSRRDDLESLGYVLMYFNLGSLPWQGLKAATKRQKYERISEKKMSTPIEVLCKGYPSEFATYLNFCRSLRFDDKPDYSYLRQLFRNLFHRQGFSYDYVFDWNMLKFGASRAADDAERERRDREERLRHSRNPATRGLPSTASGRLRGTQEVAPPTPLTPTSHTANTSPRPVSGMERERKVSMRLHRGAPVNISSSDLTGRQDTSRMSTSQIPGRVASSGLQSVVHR", "protocol": "as §1"}, "[22]": {"target": "CHK1 (Homo sapiens, UniProt O14757)", "protocol": "as §1"}, "[23]": {"target": "IR-HIS (Homo sapiens, UniProt P06213)", "protocol": "as §1"}, "[24]": {"target": "PRK2 (Homo sapiens, UniProt Q16513)", "protocol": "as §1"}, "[25]": {"target": "HIPK2 (Homo sapiens, UniProt Q9H2X6)", "protocol": "as §1"}, "[26]": {"target": "TBK1 (Homo sapiens, UniProt Q9UHD2)", "protocol": "as §1"}, "[27]": {"target": "HIPK3 (Homo sapiens, UniProt Q9H422)", "protocol": "as §1"}}}
{"smiles": "Nc1ccc2c(NC3CC3)nc(-c3ccccc3)nc2c1", "note": "[1b, N^4-Cyclopropyl-2-phenyl-4,7-quinazolinediamine]", "values": [{"measurement": "remaining activity at 10 µM", "setting": "[1]", "value": 88, "unit": "%"}, {"measurement": "remaining activity at 10 µM", "setting": "[2]", "value": 97, "unit": "%"}, {"measurement": "remaining activity at 10 µM", "setting": "[3]", "value": 93, "unit": "%"}, {"measurement": "remaining activity at 10 µM", "setting": "[4]", "value": 91, "unit": "%"}, {"measurement": "remaining activity at 10 µM", "setting": "[5]", "value": 99, "unit": "%"}, {"measurement": "remaining activity at 10 µM", "setting": "[6]", "value": 96, "unit": "%"}, {"measurement": "remaining activity at 10 µM", "setting": "[7]", "value": 100, "unit": "%"}, {"measurement": "remaining activity at 10 µM", "setting": "[8]", "value": 94, "unit": "%"}, {"measurement": "remaining activity at 10 µM", "setting": "[9]", "value": 96, "unit": "%"}, {"measurement": "remaining activity at 10 µM", "setting": "[10]", "value": 96, "unit": "%"}, {"measurement": "remaining activity at 10 µM", "setting": "[11]", "value": 94, "unit": "%"}, {"measurement": "remaining activity at 10 µM", "setting": "[12]", "value": 97, "unit": "%"}, {"measurement": "remaining activity at 10 µM", "setting": "[13]", "value": 85, "unit": "%"}, {"measurement": "remaining activity at 10 µM", "setting": "[14]", "value": 80, "unit": "%"}, {"measurement": "remaining activity at 10 µM", "setting": "[15]", "value": 98, "unit": "%"}, {"measurement": "remaining activity at 10 µM", "setting": "[16]", "value": 91, "unit": "%"}, {"measurement": "remaining activity at 10 µM", "setting": "[17]", "value": 95, "unit": "%"}, {"measurement": "remaining activity at 10 µM", "setting": "[18]", "value": 83, "unit": "%"}, {"measurement": "remaining activity at 10 µM", "setting": "[19]", "value": 101, "unit": "%"}, {"measurement": "remaining activity at 10 µM", "setting": "[20]", "value": 102, "unit": "%"}, {"measurement": "remaining activity at 10 µM", "setting": "[21]", "value": 86, "unit": "%"}, {"measurement": "remaining activity at 10 µM", "setting": "[22]", "value": 93, "unit": "%"}, {"measurement": "remaining activity at 10 µM", "setting": "[23]", "value": 87, "unit": "%"}, {"measurement": "remaining activity at 10 µM", "setting": "[24]", "value": 103, "unit": "%"}, {"measurement": "remaining activity at 10 µM", "setting": "[25]", "value": 101, "unit": "%"}, {"measurement": "remaining activity at 10 µM", "setting": "[26]", "value": 79, "unit": "%"}, {"measurement": "remaining activity at 10 µM", "setting": "[27]", "value": 115, "unit": "%"}]}
